From patent EP0152574A1, “6-Ethoxy-4-methyl-benzothiazol-2(3H)-one, processes for its preparation and medicaments containing this compound” (priority 1983, dated 1985) come the findings set out here.

Data set [1] concerns Entzündungsschmerz der Ratte. The data set can be described thus: Inflammatory pain test according to RANDALL and SELITTO (yeast-inflamed paw, pain threshold). Type of data set: in vivo. As to conditions: 1.5 h; rat, oral, 90 min after dosing; dose raising pain threshold by 50 %; confidence limits in brackets. The procedure:
l.) Die Prüfung der Wirkung gegen den Entzündungsschmerz der Ratte erfolgte mit der Methode nach RANDALL u. SELITTO (Arch. int. Pharmacodyn. 111, 409 (1957)). Die Prüfsubstanzen wurden männlichen Ratten mit einem Gewicht zwischen 100 und 130 g als Verreibung in 1%iger Methylzellulose (1,0 ml/100 g Tier) 90 Minuten nach der subplantaren Hefegabe per Schlundsonde verabfolgt. Aus der 90 Minuten nach Gabe der verschiedenen Dosen der Prüfsubstanz gemessenen Schmerzschwelle wurde nach linearer Regressionsanalyse eine ED50 als jene Dosis ermittelt, die eine Anhebung der Schmerzschwelle um 50 % bewirkt.

In data set [2] the test system is Glutathiongehalt der Mäuseleber. Briefly: Effect on liver glutathione content (ELLMAN method). Format: in vivo, Maus. As to the method:
4.) Der Einfluß auf den Glutathion-Gehalt der Leber wurde an männlichen Mäusen mit einem Gewicht zwischen 25 und 30 g untersucht. 2 Stunden nach oraler Gabe der Prüfsubstanz (als Verreibung in l%iger Methylzellulose, 0,2 ml/10 g Tier) wurde die Leber entnommen.
Für die prognostische Beurteilung einer Hepatotoxizität ist die Erschöpfung der Glutathionvorräte in der Leber ein geeigneter Indikator.

For a further data set, the system named is Hefefieber der Ratte. Briefly: Antipyretic action against yeast-induced fever. Type of data set: in vivo. Set-up: unit not given here. Conditions: rat, oral, 2 h after dosing; dose lowering yeast fever by 1°C; limits in brackets. The procedure:
2. Die Prüfung der antipyretischen Wirkung erfolgte gegen das durch subcutane Gabe von 100 mg Hefe/100 g Tier ausgelöste Fieber an 120-150 g schweren männlichen Ratten. Die Prüfsubstanzen wurden 4 Stunden nach Hefegabe als Verreibung in l%iger Methylzellulose (1,0 ml/100 g) per Schlundsonde verabfolgt. Aus der 2 Stunden danach gefundenen Veränderung der Rektaltemperatur gegenüber der der Kontrolltiere wurde nach linearer Regressionsanalyse eine ED-1,0°C als jene Dosis berechnet, die das Hefefieber um 1°C senkte.

Another data set can be described thus: in vivo. Conditions: rat, oral, 14 days observation, limits in brackets. The procedure:
3.) Die Bestimmung der akuten Toxizität erfolgte an Ratten beider Geschlechter mit einem Gewicht zwischen 120 und 150 g. Die Prüfsubstanzen wurden als Verreibung in l%iger Methylzellulose (2,0 ml/100 g Tier) per Schlundsonde appliziert. Die Berechnung der LD50 erfolgte nach […] u.

In general, ED50 refers to the dose that gives a 50% effect, or the effect in half of the subjects. By LD50 is commonly meant the dose expected to kill half of the subjects tested.

In the case of `CCOc1cc(C)c2[nH]c(=O)sc2c1` [Substanz A, 6-Ethoxy-4-methyl-benzothiazol-2(3H)-on], the 50% effect level in data set [1] (ED50) was put at a dose of 24.1 mg/kg. In data set [2] (in vivo, po, 1000 mg/kg), the “Verminderung des Leberzellglutathion” value was “deutlich schwächer und unterhalb des kritischen Bereiches”, the “red. GSH x̄” value is on record as 5,02 and the “Δ gegen Kontrollen” value is on record as “- 36,0%”. In the data set on Hefefieber der Ratte, the “ED-1,0 °C” value was 31,2 (25,1-36,5). The molecule also registered an LD50 at 336 h in “in vivo” above 4000 mg/kg.
In turn, `COc1cc(C)c2[nH]c(=O)sc2c1` [Substanz B, 6-Methoxy-4-methyl-benzothiazol-2(3H)-on] gave an ED50 in data set [1] of 23 mg/kg. In data set [2] (in vivo, po, 1000 mg/kg), the “Verminderung des Leberzellglutathion” value is reported as above 50%, the “red. GSH x̄” value is 3,42 and the “Δ gegen Kontrollen” value is on record as “- 56,4%”. Besides, the “ED-1,0 °C” value in the data set with Hefefieber der Ratte is listed as 29,6 (25,0-34,0). In the data set “in vivo”, this molecule yielded an LD50 at 336 h of 7580 mg/kg.
Take `Cc1cc(C)c2[nH]c(=O)sc2c1` [Substanz C, 4,6-Dimethyl-benzothiazol-2(3H)-on]: the 50% effect level in data set [1] (ED50) was put at a dose of 49.7 mg/kg. Besides, the “red. GSH x̄” value in data set [2] (mouse liver, 2 h after oral 1000 mg/kg) is on record as 2,90 mMol/g. Moreover, the “Verminderung des Leberzellglutathion” value in data set [2] (single oral dose 1000 mg/kg, mouse, critical range = depletion by more than 50 %) is reported as above 50%. Moreover, the “ED-1,0 °C” value with Hefefieber der Ratte is 18,1 (11,3-23,7).
`CC(=O)Nc1ccc(O)cc1` [Substanz D, p-Hydroxy-acetanilid] returned an ED50 in data set [1] of 215 mg/kg. In addition, the “Δ gegen Kontrollen” value in data set [2] (in vivo, po, 160 mg/kg) is on record as “- 32,7%”; in data set [2] (in vivo, po, 200 mg/kg), “- 51,3%”; in data set [2] (in vivo, po, 250 mg/kg) it was “- 65,7%”; in data set [2] (in vivo, po, 315 mg/kg), “- 82,4%”. Besides, in the data set on Hefefieber der Ratte, the “ED-1,0 °C” value is reported as 123 (84,0-155). The molecule further showed an LD50 at 336 h in “in vivo” of 3960 mg/kg.
